In ChEMBL document CHEMBL1158595, “2' biaryl amides as novel and subtype selective M1 agonists. Part II: Further optimization and profiling” (Bioorg Med Chem Lett, 2010):
Calls of active or inactive are those of the source. The rule behind the calls is not given here.

Key:
[1] = biological target: T1, Muscarinic acetylcholine receptor M5 (Homo sapiens, UniProt P08912); test: Inhibition of human muscarinic M5 receptor expressed in CHO cells; type: cell-based
T1 sequence (P08912 whole entry): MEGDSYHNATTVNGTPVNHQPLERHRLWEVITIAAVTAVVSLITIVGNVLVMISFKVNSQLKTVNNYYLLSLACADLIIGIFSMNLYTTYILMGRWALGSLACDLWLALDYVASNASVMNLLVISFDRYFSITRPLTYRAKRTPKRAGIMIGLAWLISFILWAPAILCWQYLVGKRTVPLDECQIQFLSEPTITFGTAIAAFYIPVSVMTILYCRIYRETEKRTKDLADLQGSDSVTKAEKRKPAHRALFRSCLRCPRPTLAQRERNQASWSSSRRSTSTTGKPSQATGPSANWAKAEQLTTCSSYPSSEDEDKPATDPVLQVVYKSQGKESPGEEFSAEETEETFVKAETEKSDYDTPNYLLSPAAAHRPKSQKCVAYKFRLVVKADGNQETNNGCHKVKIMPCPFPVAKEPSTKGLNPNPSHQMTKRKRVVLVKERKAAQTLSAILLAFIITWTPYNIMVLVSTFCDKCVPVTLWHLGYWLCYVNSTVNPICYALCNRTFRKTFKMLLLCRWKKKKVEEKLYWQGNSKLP

[2] = biological target: T2, Muscarinic acetylcholine receptor M2 (Homo sapiens, UniProt P08172); test: Inhibition of human muscarinic M2 receptor expressed in CHO cells; type: cell-based
T2 sequence (P08172 whole entry): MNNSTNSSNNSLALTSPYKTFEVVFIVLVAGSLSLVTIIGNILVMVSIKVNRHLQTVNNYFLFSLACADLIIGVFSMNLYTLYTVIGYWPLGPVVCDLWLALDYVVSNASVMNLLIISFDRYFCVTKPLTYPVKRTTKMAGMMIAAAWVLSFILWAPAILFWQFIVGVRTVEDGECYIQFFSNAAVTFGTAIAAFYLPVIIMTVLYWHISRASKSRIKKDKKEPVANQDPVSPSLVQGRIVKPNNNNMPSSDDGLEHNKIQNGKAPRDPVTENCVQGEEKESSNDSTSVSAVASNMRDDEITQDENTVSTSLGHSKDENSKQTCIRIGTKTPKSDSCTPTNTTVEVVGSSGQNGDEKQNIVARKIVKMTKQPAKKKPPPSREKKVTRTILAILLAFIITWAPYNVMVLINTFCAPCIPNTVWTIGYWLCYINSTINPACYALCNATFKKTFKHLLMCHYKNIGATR

[3] = biological target: T3, Muscarinic acetylcholine receptor M3 (Homo sapiens, UniProt P20309); test: Inhibition of human muscarinic M3 receptor expressed in CHO cells; type: cell-based
Target sequence in this assay (P20309 whole entry): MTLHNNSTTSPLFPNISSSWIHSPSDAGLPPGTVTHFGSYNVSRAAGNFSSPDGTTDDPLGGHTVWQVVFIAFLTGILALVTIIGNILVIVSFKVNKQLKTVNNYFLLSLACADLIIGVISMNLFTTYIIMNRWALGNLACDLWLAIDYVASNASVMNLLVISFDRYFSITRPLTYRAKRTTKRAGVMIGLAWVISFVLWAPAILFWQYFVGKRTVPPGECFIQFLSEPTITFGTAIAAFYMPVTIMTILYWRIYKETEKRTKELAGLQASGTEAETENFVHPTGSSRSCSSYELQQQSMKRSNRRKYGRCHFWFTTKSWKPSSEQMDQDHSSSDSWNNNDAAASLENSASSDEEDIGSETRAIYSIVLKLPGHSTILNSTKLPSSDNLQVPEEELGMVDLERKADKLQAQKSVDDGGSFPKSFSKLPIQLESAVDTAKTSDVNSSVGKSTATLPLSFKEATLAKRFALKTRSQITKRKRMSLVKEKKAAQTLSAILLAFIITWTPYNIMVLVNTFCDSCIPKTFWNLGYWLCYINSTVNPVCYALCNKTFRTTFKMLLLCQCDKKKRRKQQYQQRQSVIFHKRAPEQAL

[4] = biological target: T4, Muscarinic acetylcholine receptor M1 (Homo sapiens, UniProt P11229); test: Agonist activity at human muscarinic M1 receptor expressed in CHO cells assessed as effect on acetylcholine-induced intracellular calcium level by FLIPR assay; type: functional, cell-based
T4 sequence (P11229 whole entry): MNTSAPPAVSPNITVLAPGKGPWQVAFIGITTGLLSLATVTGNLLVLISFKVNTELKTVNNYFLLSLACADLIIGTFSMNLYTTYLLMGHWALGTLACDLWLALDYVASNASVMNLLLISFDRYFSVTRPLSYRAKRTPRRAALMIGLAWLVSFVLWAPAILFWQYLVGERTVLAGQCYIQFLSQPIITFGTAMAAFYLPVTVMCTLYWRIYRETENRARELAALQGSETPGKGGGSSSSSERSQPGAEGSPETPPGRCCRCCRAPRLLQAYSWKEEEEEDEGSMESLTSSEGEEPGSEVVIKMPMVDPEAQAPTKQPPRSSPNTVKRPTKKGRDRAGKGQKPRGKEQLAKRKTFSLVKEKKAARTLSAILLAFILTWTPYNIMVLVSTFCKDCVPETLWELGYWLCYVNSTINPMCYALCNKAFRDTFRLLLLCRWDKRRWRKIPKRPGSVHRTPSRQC

[5] = biological target: T5, Muscarinic acetylcholine receptor M1 (Homo sapiens) (UniProt P11229); test: Intrinsic activity at human muscarinic M1 receptor expressed in CHO cells assessed as effect on acetylcholine-induced intracellular calcium level by FLIPR assay relative to acetylcholine; type: functional, cell-based
T5 sequence (whole entry): T4 sequence (P11229 whole entry)

[6] = biological target: T6, Muscarinic acetylcholine receptor M4 (Homo sapiens, UniProt P08173); test: Inhibition of human muscarinic M4 receptor expressed in CHO cells; type: cell-based
T6 sequence (P08173 whole entry): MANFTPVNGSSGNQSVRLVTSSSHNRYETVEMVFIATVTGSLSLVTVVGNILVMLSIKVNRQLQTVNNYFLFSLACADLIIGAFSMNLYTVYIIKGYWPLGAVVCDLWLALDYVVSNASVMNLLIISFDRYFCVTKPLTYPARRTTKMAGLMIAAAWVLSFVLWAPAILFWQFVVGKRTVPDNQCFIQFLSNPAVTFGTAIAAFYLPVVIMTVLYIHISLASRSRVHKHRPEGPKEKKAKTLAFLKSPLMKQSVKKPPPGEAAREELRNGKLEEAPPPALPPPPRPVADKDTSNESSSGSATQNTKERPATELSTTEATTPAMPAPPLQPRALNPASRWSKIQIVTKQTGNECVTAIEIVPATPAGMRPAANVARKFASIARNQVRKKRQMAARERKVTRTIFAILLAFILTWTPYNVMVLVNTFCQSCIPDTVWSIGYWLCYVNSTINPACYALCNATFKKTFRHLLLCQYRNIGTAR

[7] = tested on: Rattus norvegicus; test: AUC in rat at 10 mg/kg, sc; type: ADME, organism-based, Plasma; parameters: dose 10 mg/kg, route subcutaneous; settings: in vivo
[8] = biological target: T7, Muscarinic acetylcholine receptor M5 (Homo sapiens) (UniProt P08912); test: Agonist activity at human muscarinic M5 receptor expressed in CHO cells assessed as effect on acetylcholine-induced intracellular calcium level by FLIPR assay; type: functional, cell-based
T7 sequence (whole entry): T1 sequence (P08912 whole entry)

[9] = biological target: T8, Muscarinic acetylcholine receptor M4 (Homo sapiens) (UniProt P08173); test: Agonist activity at human muscarinic M4 receptor expressed in CHO cells assessed as effect on acetylcholine-induced intracellular calcium level by FLIPR assay; type: functional, cell-based
T8 sequence (whole entry): T6 sequence (P08173 whole entry)

[10] = biological target: T9, Muscarinic acetylcholine receptor M2 (Homo sapiens) (UniProt P08172); test: Agonist activity at human muscarinic M2 receptor expressed in CHO cells assessed as effect on acetylcholine-induced intracellular calcium level by FLIPR assay; type: functional, cell-based
T9 sequence (whole entry): T2 sequence (P08172 whole entry)

[11] = Half life in rat at 10 mg/kg, sc; type: ADME, organism-based; parameters: dose 10 mg/kg, route subcutaneous; settings: in vivo
[12] = Ratio of drug level in brain to blood in rat at 10 mg/kg, sc; type: ADME, organism-based; parameters: dose 10 mg/kg, route subcutaneous
[13] = biological target: T3, Muscarinic acetylcholine receptor M3; test: Agonist activity at human muscarinic M3 receptor expressed in CHO cells assessed as effect on acetylcholine-induced intracellular calcium level by FLIPR assay; type: functional, cell-based
Target sequence in this assay (P20309 whole entry, looked up): as the sequence (P20309 whole entry) above

[14] = species on record: Homo sapiens; test: Selectivity ratio of human muscarinic M5 receptor to human muscarinic M1 receptor
[15] = biological target: Muscarinic acetylcholine receptor M1 and M3 (Homo sapiens) (UniProt P20309+P11229); test: Selectivity ratio of human muscarinic M3 receptor to human muscarinic M1 receptor
Muscarinic acetylcholine receptor M1 and M3 (Homo sapiens), sequence (P20309 whole entry, looked up, one chain of several): as the sequence (P20309 whole entry) above

[16] = biological target: Muscarinic acetylcholine receptors; M1 & M2 (Homo sapiens) (UniProt P11229+P08172); test: Selectivity ratio of human muscarinic M2 receptor to human muscarinic M1 receptor
[17] = species on record: Homo sapiens; test: Selectivity ratio of human muscarinic M4 receptor to human muscarinic M1 receptor
[18] = Ratio of drug level in brain to blood in rat at 3 mg/kg, po; type: ADME, organism-based; parameters: dose 3 mg/kg, route oral
[19] = tested on: Rattus norvegicus; test: AUC in rat at 3 mg/kg, po; type: ADME, organism-based, Plasma; parameters: dose 3 mg/kg, route oral; settings: in vivo
[20] = Half life in rat at 3 mg/kg, po; type: ADME, organism-based; parameters: dose 3 mg/kg, route oral; settings: in vivo

IC50 [1] | IC50 [2] | IC50 [3] | EC50 [4] | Intrinsic activity [5] | IC50 [6] | SMILES | other results
1.58 µM | 1.26 µM | 3.16 µM | 0.00316 µM | 91% | 7.94 µM | O=C(NCC1=CCNCC1)c1c(F)cccc1-c1cccc(Cl)c1 | 
0.501 µM | 0.2 µM | 0.0398 µM | 0.000794 µM | 116% | 0.158 µM | C[C@H]1CNCC[C@@H]1CNC(=O)c1c(F)cccc1-c1cccc(Cl)c1 (relative stereo) | AUC [7]: 1655 ng·h/g; Activity [8]: inactive; Activity [9]: inactive; Activity [10]: inactive; half-life [11]: 2.3 h; Kp [12]: 0.9; Activity [13]: inactive
 |  |  | 0.251 µM |  |  | O=C(NCC1CCNCC1)c1ccccc1-c1nc(Cl)cs1 | EC50 [1]: > 10 µM; EC50 [2]: > 10 µM; Ratio [14]: 100; EC50 [3]: > 10 µM; Ratio [15]: 100; Ratio [16]: 100; Ratio [17]: 100; EC50 [6]: > 10 µM
6.31 µM | 2.51 µM | 5.01 µM | 0.01 µM | 85% | 3.16 µM | C[C@H]1CNCC[C@]1(F)CNC(=O)c1c(F)cccc1-c1cccc(Cl)c1 | Kp [18]: 0.3; AUC [19]: 2221 ng·h/g; half-life [20]: 3 h
